Assay results reported in patent US12590094B2, “Compounds for the treatment of neurodegenerative and metabolic disorders” (UNIVERSITY OF FLORIDA RESEARCH FOUNDATION, INCORPORATED, priority 2019, dated 2026).
Values joined by “and” are separate entries in the source; they are usually repeats but may differ in a detail not shown here. Identical values can stand only once. Like-named read-outs stand apart in the source and are kept apart here.

Columns and labels:
Cells exposed to TPrP [1] = settings: for EC50: read-out: Viability EC50
Cells exposed to TPrP [2] = assay: cells; settings: read-out: Viability EC50
[3] = test system: PK1 neuroblastoma cells treated with TPrP; assay: cells; assay type: cell-based; settings: Neuroblastoma cell, read-out: Viability EC50
[4] = test system: Murine stem-cell derived neurons; assay: Cellular PD/synucleinopathy model, PFFs-seeded murine neurons, neurite length; assay type: cell-based; settings: FIG. 14
Protocol: Murine stem-cell derived neurons (8 days post-differentiation) were seeded with PFFs (A, B: 4 μg/ml; C, D: 3 μg/ml) and treated with the test compounds at the dose indicated, or with the vehicle DMSO, during the last 2 days of differentiation. Control cells were not PFFs-seeded. Cells were photographed by phase contrast microscopy. Neurite length was quantified using the NeuronJ plugin of ImageJ (NIH), statistical analysis was done in pairs by comparing compound-treated cells with the DMSO control (student's t-test, Prism8). Mean values and SEMs of 4 fields per each condition are shown. Each field contained approximately 50 to 100 neurons. Images shown correspond to a representative area of one field. ****P<0.0001; ***P<0.001; **P<0.01; *P<0.05; ns=not significant.

[5] = test system: PK1 neuroblastoma cells treated with TPrP; assay: cells; assay type: cell-based; settings: Neuroblastoma cell, read-out: NAD EC50
NAMPT = biological target: T1, NAMPT (Homo sapiens, UniProt P43490); assay: Colorimetric NAMPT activity assay (Abcam, ab221819); assay type: biochemical; settings: tested at 5 μM or 20 μM
T1 construct: purchased Abcam ab221819
T1 sequence (P43490 whole entry): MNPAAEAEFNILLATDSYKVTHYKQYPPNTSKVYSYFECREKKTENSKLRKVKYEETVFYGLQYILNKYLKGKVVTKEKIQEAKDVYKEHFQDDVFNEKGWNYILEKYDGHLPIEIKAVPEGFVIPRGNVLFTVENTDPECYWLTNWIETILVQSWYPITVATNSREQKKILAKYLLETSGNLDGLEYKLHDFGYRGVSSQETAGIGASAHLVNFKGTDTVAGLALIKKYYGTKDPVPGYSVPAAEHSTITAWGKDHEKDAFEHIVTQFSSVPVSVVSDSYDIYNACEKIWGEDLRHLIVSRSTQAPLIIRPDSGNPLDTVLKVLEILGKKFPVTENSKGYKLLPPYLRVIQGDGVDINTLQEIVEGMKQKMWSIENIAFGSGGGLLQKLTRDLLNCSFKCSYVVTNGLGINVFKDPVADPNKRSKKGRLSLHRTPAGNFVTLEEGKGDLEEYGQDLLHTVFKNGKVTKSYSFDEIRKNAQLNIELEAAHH
Protocol: Compounds were tested in a colorimetric NAMPT activity assay (Abcam, ab221819). Each data point represents a duplicate sample. […] Compounds were tested at 5 μM (A) or 20 μM (B).

PARP-1 = PARP-1 (Homo sapiens, UniProt P09874); assay: PARP1 chemiluminescent assay kit (BPS Bioscience); assay type: biochemical; settings: FIG. 15
PARP-1, sequence (P09874 whole entry): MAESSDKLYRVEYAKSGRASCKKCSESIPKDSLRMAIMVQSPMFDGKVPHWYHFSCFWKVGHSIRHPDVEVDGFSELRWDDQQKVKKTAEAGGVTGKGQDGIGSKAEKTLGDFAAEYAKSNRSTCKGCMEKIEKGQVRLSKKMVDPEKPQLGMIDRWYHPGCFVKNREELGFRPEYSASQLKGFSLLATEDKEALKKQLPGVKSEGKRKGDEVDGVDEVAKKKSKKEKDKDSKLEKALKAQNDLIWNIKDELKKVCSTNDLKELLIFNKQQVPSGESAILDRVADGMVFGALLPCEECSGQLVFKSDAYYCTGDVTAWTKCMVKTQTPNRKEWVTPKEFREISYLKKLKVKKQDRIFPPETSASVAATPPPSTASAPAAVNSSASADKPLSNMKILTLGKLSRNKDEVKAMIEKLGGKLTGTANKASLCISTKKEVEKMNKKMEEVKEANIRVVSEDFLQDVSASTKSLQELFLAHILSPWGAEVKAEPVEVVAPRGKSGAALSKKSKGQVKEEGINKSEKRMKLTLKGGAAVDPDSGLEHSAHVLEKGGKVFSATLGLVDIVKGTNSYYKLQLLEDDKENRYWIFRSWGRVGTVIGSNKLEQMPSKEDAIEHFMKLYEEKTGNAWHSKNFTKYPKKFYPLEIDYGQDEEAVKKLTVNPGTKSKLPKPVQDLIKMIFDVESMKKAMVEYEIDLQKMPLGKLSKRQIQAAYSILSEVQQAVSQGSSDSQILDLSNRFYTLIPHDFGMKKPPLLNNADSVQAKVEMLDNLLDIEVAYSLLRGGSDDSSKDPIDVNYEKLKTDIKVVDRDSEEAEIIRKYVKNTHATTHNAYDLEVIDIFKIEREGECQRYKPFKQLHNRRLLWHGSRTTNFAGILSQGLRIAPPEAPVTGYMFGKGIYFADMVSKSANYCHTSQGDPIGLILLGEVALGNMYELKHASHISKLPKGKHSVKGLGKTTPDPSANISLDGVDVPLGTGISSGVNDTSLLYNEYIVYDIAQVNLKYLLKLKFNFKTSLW
Protocol: ABT-888 is a known PARP1 inhibitor serving as pharmacological control for the assay. […] The assay was performed using the BPS Bioscience PARP1 chemiluminescent assay kit according to the manufacturer's instructions.

Compound	EC50 [3] [nM]	EC50 [5] [nM]	also measured
CCc1c(C(=O)NCCN)ncc2[nH]c3cc(OC)c(OC)cc3c12 [DMCM-8124]			EC50 (Cells exposed to TPrP [1]): ~1800 nM
CCc1c(C(=O)NCCN)ncc2[nH]c3cc(OC)c(OC)cc3c12 [DMCM-8130]			EC50 (Cells exposed to TPrP [1]): ~600 nM
CCc1c(C(=O)N[C@H]2CC[C@@H](N)CC2)ncc2[nH]c3cc(OC)c(OC)cc3c12 [DMCM-8137]			EC50 (Cells exposed to TPrP [2]): ~500 nM; neuroprotection in the TPrP neuroprotection assay (Cells exposed to TPrP [1]): neuroprotective
COc1ccc(-c2cc(C(F)(F)F)n3ncc(C(=O)NCCCn4ccnc4)c3n2)cc1 [SR0-24081]			EC50 (Cells exposed to TPrP [1]): 0.5 nM
O=C(NCCCn1ccnc1)c1cnn2c(C(F)(F)F)cc(-c3ccc(Br)cc3)nc12 [SR0-24082]			Viability EC50: % effective (Cells exposed to TPrP [1]): ~40% effective at nM, fully effective at 10 nM
O=C(NCCCn1ccnc1)c1cnn2c(C(F)(F)F)cc(-c3ccc(F)cc3)nc12 [SR0-24083]			Viability EC50: % effective (Cells exposed to TPrP [1]; at 1 nM): ~40% effective at 1 nM, fully effective at 10 nM
O=C(NCCCn1ccnc1)c1cnn2c(C(F)F)cc(-c3ccccc3)nc12 [SR0-24084]			Viability EC50: % effective (Cells exposed to TPrP [1]; at 1 nM): ~40% effective at 1 nM, fully effective at 10 nM
COc1ccc(-c2cc(C(F)(F)F)n3ncc(C(=O)NCCCn4ccnc4)c3n2)cc1 [SR0-28468]			EC50 (Cells exposed to TPrP [1]): > 50 nM
COc1ccc(-c2cc(C(F)(F)F)n3ncc(C(=O)NCCCn4ccnc4C)c3n2)cc1 [SR0-31107]			EC50 (Cells exposed to TPrP [1]): 2 nM
COc1ccc(-c2cc(C(F)(F)F)n3ncc(C(=O)NCCCn4ccnc4C)c3n2)cc1 [SR0-31108]			EC50 (Cells exposed to TPrP [1]): > 50 nM
O=c1cc(-c2ccc(O)cc2)oc2cc(O)cc(O)c12 [SR1-75663, 5,7-dihydroxy-2-(4-hydroxyphenyl)-4H-chromen-4-one]	1700	> 10000	loss of neurites induced by PFFs exposure [4]: prevent loss of neurites
Cc1ccc(-c2nnc3c4ccccc4c(C)nn23)cc1S(=O)(=O)NC(C)(C)CO [SR1-115259]	5.1	167	loss of neurites induced by PFFs exposure [4]: prevent loss of neurites; Activation of NAMPT (NAMPT): not
NS(=O)(=O)c1ccc(Nc2nc(-c3ccccn3)cs2)cc1 [SR1-477176]	227	891	
NS(=O)(=O)c1ccc(Nc2nc(-c3ccncc3)cs2)cc1 [SR1-477186]	26	365	loss of neurites induced by PFFs exposure [4]: prevent loss of neurites; Activation of NAMPT (NAMPT): not
Cc1nc2sccn2c1-c1csc(Nc2ccc(S(N)(=O)=O)cc2)n1 [SR1-477230]	47	204	
Cc1nc2ncccn2c1-c1csc(Nc2ccc(S(N)(=O)=O)cc2)n1 [SR1-477264]	155	597	
Cc1nc(C)c(-c2csc(Nc3ccc(S(N)(=O)=O)cc3)n2)s1 [SR1-477302]	14	103	EC50 (Cells exposed to TPrP [1]): 18 nM and 30 nM
NS(=O)(=O)c1ccc(Nc2nc(-c3ccccc3)cs2)cc1 [SR1-492469]	311	859	
Cc1ccc(-c2cc(C(F)(F)F)n3ncc(C(=O)NCCCn4ccnc4)c3n2)cc1 [SR1-527764]	1.9	7.1	
O=C(NCCCn1ccnc1)c1cnn2c(C(F)(F)F)cc(-c3ccc(-c4ccco4)cc3)nc12 [SR1-550907]	2.9	9.7	
Cc1ccc(-c2nnc3c4ccccc4c(C)nn23)cc1S(=O)(=O)N1CCN(CCO)CC1 [SR1-626887]	< 3	9.1	
COc1ccc2cc3[n+](cc2c1OC)CCc1cc2c(cc1-3)OCO2 [SR1-711827, berberine chloride]	3100	13200	
O=c1cc(-c2ccc(O)cc2)oc2cc(O[C@@H]3O[C@H](CO)[C@@H](O)[C@H](O)[C@H]3OC3OC[C@](O)(CO)[C@H]3O)cc(O)c12 (stereo partly drawn) [SR1-712126]	4600	10700	
COc1ccc2c3c([nH]c2c1)C(C)=NCC3 [SR1-721899, harmaline]	3800	14000	
NS(=O)(=O)c1ccc(Nc2nc(-c3ccc(F)cc3)cs2)cc1 [SR1-742242]	197	946	
CN1C[C@H](CO)C=C2c3cccc4[nH]cc(c34)C[C@H]21 [SR1-758923, lysergol]	1900	> 15000	
COc1cc2c(cc1O)C[C@H]1c3c(cc(O)c(OC)c3-2)CCN1C [SR1-758928, boldine]	2000	7600	

Compound	EC50 [3] [nM]	EC50 [5] [nM]	also measured
COc1cc(OC)c2c(=O)cc(-c3ccccc3)oc2c1 [SR1-758978, 5,7-dimethoxy-2-phenyl-4H-chromen-4-one]	1700	> 10000	
NS(=O)(=O)c1ccc(Nc2nc(-c3cccnc3)cs2)cc1 [SR1-809850]	88	337	
COc1cc2c(cc1OC)-c1cc3ccc(OC)c(OC)c3c[n+]1CC2 [SR1-841226, palmatine chloride]	1100	2000	
COc1ccc2c(c1O)-c1c(OC)c(O)cc3c1[C@H](C2)N(C)CC3 [SR1-841246, N-Methyl lindcarpine]	4400	> 15000	
COc1ccc(-c2cc(C(F)(F)F)n3ncc(C(=O)NCCCn4ccnc4C)c3n2)cc1 [SR3-5210]			EC50 (Cells exposed to TPrP [1]): 2.7 nM
COc1ccc(-c2cc(C(F)(F)F)n3ncc(C(=O)NCCCn4ccnc4)c3n2)cc1 [SR3-5230]			EC50 (Cells exposed to TPrP [1]): > 32 nM
COc1ccc(-c2cc(C(F)(F)F)n3ncc(C(=O)NCCCn4ccnc4)c3n2)cc1 [SR3-5315]			EC50 (Cells exposed to TPrP [1]): > 16 nM
COc1ccc2c(c1)[nH]c1c(C)nccc12 [SR5-1527, methoxy harman]	1800	14000	
O=c1cc(-c2ccc(O)cc2)oc2cc(O[C@@H]3O[C@H](CO)[C@H](O)[C@H](O)[C@H]3O)cc(O)c12 [SR5-2196, apigenin 7-(β-D-galactopyranosyl) ether]	4600	> 10000	
COc1cc2c(cc1OC)[C@H]1[C@@H](C)c3ccc(OC)c(OC)c3CN1CC2 [SR5-2225, corydaline]	1300	2000	
COc1ccc(C2CC(=O)c3cc(OC)ccc3O2)cc1 (stereo not drawn) [SR5-2542, 6-methoxy-2-(4-methoxyphenyl) chroman-4-one]	2100	> 10000	
COc1ccc(-c2cc(=O)c3c(O)cc(OC)cc3o2)cc1 [SR5-2549, 5-hydroxy-7-methoxy-2-(4-methoxyphenyl)-4H-chromen-4-one]	2000	7300	
COc1ccc(-c2cc(=O)c3c(O)cc(OC)c(OC)c3o2)c(OC)c1 [SR5-2616, 2-(2,4-dimethoxyphenyl)-5-hydroxy-7,8-dimethoxy-4H-chromen-4-one]	1600	2100	
COc1cc2cc3c4cc(OC)c(OC)cc4cc[n+]3c(C)c2cc1OC [SR5-2641, coralyne chloride]	507	671	
COc1ccc(-c2oc3cc(OC)c(OC)c(OC)c3c(=O)c2OC)cc1OC [SR5-2644, 2-(3,4-dimethoxyphenyl)-3,5,6,7-tetramethoxy-4H-chromen-4-one]	620	1200	
COc1ccc(-c2cc(=O)c3c(O)c(OC)c(O[C@H]4O[C@H](CO[C@@H]5O[C@@H](C)[C@H](O)[C@@H](O)[C@H]5O)[C@@H](O)[C@H](O)[C@H]4O)cc3o2)cc1 [SR5-2766, pectolinargenin 7-[6-O-(6-deoxy-α-L-mannopyranosyl)-β-D-glucopyranosyl] ether]	2100	4000	
COc1ccc(-c2nnc3c4ccccc4c(C)nn23)cc1S(=O)(=O)N1CCOCC1 [SR5-22837]	29	89	
COc1ccc(-c2nnc3c4ccccc4c(C)nn23)cc1S(=O)(=O)NCc1cccnc1 [SR5-22838]	90	380	
Cc1ccc(-c2nnc3c4ccccc4c(C)nn23)cc1S(=O)(=O)NCc1cccnc1 [SR5-22839]	28	92	
COCCNS(=O)(=O)c1cc(-c2nnc3c4ccccc4c(C)nn23)ccc1C [SR5-22841]	130	688	
Cc1ccc(-c2nnc3c4ccccc4c(C)nn23)cc1S(=O)(=O)N1CCOCC1 [SR5-22843]	30	219	PARP-1 inhibition (PARP-1): absence of PARP-1 inhibition
Cc1ccc(-c2cc(C(F)F)n3ncc(C(=O)NCCCn4ccnc4)c3n2)cc1 [SR-024088]			Viability EC50: % effective (Cells exposed to TPrP [1]; at 1 nM): >80% effective at 1 nM
Cc1nc(C)c(-c2csc(Nc3ccc(S(N)(=O)=O)cc3)n2)s1 [SR-27807]			EC50 (Cells exposed to TPrP [1]): 50 nM
COc1ccc(-c2cc(=O)c3c(OC)c(OC)c(OC)cc3o2)cc1OC [SR-05000002257, 2-(3,4-dimethoxyphenyl)-5,6,7-trimethoxy-4H-chromen-4-one]	323	3600	
COc1ccc(-c2cc(=O)c3c(OC)c(OC)c(OC)c(OC)c3o2)cc1 [SR-05000002625, 5,6,7,8-tetramethoxy-2-(4-methoxyphenyl)-4H-chromen-4-one]	1900	6000	
COc1ccc(-c2cc(=O)c3c(O)c(OC)c(OC)c(OC)c3o2)cc1OC [SR-05000002635, 2-(3,4-dimethoxyphenyl)-5-hydroxy-6,7,8-trimethoxy-4H-chromen-4-one]	81	609	
